The record followed here is US8163909B2, “Substituted hydroxyethyl amine compounds as beta-secretase modulators and methods of use” (Amgen Inc., priority 2007, dated 2012).

Data set [1] concerns Aβ40 in conditioned medium of cells stably expressing Amyloid Precursor Protein (APP). Nature of the data set: In vitro BACE cell-based assay (Aβ40 in conditioned medium, sandwich ELISA).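 Further: compounds added as a dilution series, secreted peptide quantified by europium time-resolved fluorescence readout, potency fitted from percent of control versus compound concentration.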 Conditions: Homo sapiens, HEK293, HEK cells; read-out: HEK cell assay. On the technique in general: An ELISA detects its analyte on a solid surface through an enzyme-linked reagent.
For data set [2], the target named is Beta Secretase enzyme (BACE) (Homo sapiens, UniProt P56817). Nature of the data set: In vitro enzymatic BACE FRET (fluorescence resonance energy transfer) assay.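 Further: fluorescence read after 1 h with 50 nM quenched peptide substrate spanning the BACE cleavage site, in pH 4.2 acetate buffer containing 10% DMSO and nonionic detergent.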 It counts as biochemical. The settings on record: BACE enzyme assay; read-out: BACE1 FRET assay.
Chain of Beta Secretase enzyme (BACE) (P56817 46-501): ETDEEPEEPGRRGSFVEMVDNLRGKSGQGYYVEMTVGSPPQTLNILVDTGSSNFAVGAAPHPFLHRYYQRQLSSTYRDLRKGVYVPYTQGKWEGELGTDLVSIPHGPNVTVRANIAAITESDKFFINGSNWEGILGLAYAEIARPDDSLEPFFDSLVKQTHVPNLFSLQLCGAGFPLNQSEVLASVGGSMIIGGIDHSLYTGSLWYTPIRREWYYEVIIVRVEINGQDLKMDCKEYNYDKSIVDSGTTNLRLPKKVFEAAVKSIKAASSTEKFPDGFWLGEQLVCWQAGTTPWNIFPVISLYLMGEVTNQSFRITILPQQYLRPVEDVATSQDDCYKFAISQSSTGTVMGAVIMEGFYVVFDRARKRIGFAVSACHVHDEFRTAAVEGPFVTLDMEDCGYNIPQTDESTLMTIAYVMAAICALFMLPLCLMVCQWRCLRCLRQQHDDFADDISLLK
Data set [3] can be described thus: Microsomal stability assay, rat liver microsomes.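 Further: rat liver microsomes (0.25 mg/mL) with about 1 µM compound plus 1 mM NADPH, pH 7.4, 37 °C for 30 min, parent left measured by LC-MS/MS against 0 min.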 Conditions: rat liver microsomal data.
For a further data set, the target named is CYP3A4 (CYP3A) (Homo sapiens, UniProt P08684). Nature of the data set: in vitro. The settings on record: microsomes, pH 7.4.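 Further: inhibition of CYP3A-mediated 1-hydroxymidazolam formation after 10 min incubation with NADPH, quantified by HPLC MS relative to metabolite produced without test compound.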
Chain of CYP3A4 (CYP3A) (P08684 2-503): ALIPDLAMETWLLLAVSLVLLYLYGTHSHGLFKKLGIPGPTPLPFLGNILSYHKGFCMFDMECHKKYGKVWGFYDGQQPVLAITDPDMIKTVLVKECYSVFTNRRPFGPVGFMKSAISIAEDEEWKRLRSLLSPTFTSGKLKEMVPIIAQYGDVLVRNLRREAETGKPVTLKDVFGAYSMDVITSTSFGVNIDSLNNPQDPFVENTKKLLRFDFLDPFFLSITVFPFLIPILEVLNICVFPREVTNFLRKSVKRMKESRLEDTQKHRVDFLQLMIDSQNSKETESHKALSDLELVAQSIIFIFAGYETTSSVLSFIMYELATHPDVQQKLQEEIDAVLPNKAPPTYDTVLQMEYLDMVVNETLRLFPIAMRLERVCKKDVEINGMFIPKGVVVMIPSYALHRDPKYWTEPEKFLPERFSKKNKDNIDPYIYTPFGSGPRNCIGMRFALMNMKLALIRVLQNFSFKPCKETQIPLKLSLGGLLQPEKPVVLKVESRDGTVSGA
The target of a further data set is CYP2D6 (Homo sapiens, UniProt P10635). Nature of the data set: CYP2D6 inhibition assay (bufuralol, pooled human liver microsomes). Conditions: 2D6 IC50 (uM), CYP enzyme inhibition. Background: Microsomes from liver hold many membrane-bound enzymes, among them those of drug oxidation.
Chain of CYP2D6 (P10635 whole entry): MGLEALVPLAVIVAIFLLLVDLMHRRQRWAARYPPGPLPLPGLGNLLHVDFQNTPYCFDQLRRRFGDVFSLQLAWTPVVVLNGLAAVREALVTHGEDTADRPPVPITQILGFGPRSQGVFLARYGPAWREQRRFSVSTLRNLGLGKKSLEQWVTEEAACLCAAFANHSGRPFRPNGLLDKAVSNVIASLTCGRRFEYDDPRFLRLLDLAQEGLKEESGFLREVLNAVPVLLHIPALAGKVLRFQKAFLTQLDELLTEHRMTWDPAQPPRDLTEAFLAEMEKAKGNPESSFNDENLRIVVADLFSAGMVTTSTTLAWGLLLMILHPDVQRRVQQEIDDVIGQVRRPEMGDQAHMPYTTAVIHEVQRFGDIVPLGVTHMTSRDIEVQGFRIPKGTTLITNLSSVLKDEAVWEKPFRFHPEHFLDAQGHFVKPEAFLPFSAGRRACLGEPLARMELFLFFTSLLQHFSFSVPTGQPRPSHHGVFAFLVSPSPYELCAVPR
Data set [4] is described as follows: Microsomal stability assay, human liver microsomes.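 Further: pooled human liver microsomes at 0.25 mg/mL with 1 µM compound and NADPH at 37 °C, pH 7.4, for 30 min, unchanged parent quantified by LC-MS/MS against the 0 min sample.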 Conditions: human liver microsomal data.

Structures are written as SMILES.

As for `CO[C@H](C)C(=O)N[C@@H](Cc1ccc2c(c1)OCO2)[C@H](O)CN[C@@H]1c2cc(CC(C)(C)C)cnc2OC2(CCC2)[C@H]1F` [compound 539], the IC50 came to 147 nM in data set [1], 4770 nM in data set [2], 100 nM on CYP3A4 (CYP3A) and 6.5 µM on CYP2D6. For the same compound, the “RLM” value in data set [3] worked out at 161 µL/min/mg. Further, the “HLM” value in data set [4] came out at 61 µL/min/mg.
In the case of `CC(C)(C)Cc1cnc2c(c1)[C@@H](NC[C@@H](O)[C@H](Cc1ccc(F)cc1)NC=O)CC1(CCC1)O2` [compound 540], the IC50 was determined as 74 nM in data set [1], 14 nM in data set [2], 1200 nM at CYP3A4 (CYP3A) and 2.3 µM against CYP2D6. Further, the “RLM” value in data set [3] was 347 µL/min/mg. Besides, the “HLM” value in data set [4] amounted to 264 µL/min/mg.
In the case of `CO[C@H](C)C(=O)N[C@@H](Cc1ccccc1)[C@H](O)CN[C@H]1CC2(CCC2)Oc2c1cc(CC(C)(C)C)nc2-c1ccncc1` [compound 543], the IC50 in data set [1] stood at 255 nM; in data set [2], 37 nM; against CYP3A4 (CYP3A) it was 100 nM; against CYP2D6, 2.6 µM. Moreover, in data set [3], the “RLM” value is 242 µL/min/mg. Moreover, in data set [4], the “HLM” value amounted to 41 µL/min/mg.
Take `COCC(=O)N[C@@H](Cc1ccccc1)[C@H](O)CN[C@H]1CC2(CCC2)Oc2c(Br)cc(CC(C)C)cc21` [compound 544]: the IC50 was 937 nM in data set [1], 5 nM in data set [2], 1800 nM at CYP3A4 (CYP3A) and 7 µM on CYP2D6. The “RLM” value in data set [3] stood at 662 µL/min/mg. For the same compound, the “HLM” value in data set [4] was 399 µL/min/mg.
For `CO[C@H](C)C(=O)N[C@@H](Cc1ccccc1)[C@H](O)CN[C@H]1CC2(CCC2)Oc2c(Br)cc(CC(C)C)cc21` [compound 545], the IC50 in data set [1] came out at 1480 nM; in data set [2], 7 nM; against CYP3A4 (CYP3A), 1100 nM; against CYP2D6 it was 8.2 µM. In data set [3], the “RLM” value was found to be 775 µL/min/mg. Also, in data set [4], the “HLM” value was determined as 775 µL/min/mg.
Take `COCC(=O)N[C@@H](Cc1ccccc1)[C@H](O)CN[C@H]1CC2(CCC2)Oc2c1cc(CC(C)C)cc2-n1ccnc1` [compound 546]: the IC50 in data set [1] worked out at 33 nM; in data set [2], 25 nM; against CYP3A4 (CYP3A) it was 100 nM; at CYP2D6, 3.8 µM. For the same compound, the “RLM” value in data set [3] was 267 µL/min/mg. Besides, the “HLM” value in data set [4] turned out to be 75 µL/min/mg.
Turning to `CO[C@H](C)C(=O)N[C@@H](Cc1ccccc1)[C@H](O)CN[C@H]1CC2(CCC2)Oc2c1cc(CC(C)C)cc2-n1ccnc1` [compound 547], the IC50 in data set [1] is 73 nM; in data set [2] it was 42 nM; against CYP3A4 (CYP3A), 100 nM; on CYP2D6 it was 4.4 µM. In data set [3], the “RLM” value was found to be 260 µL/min/mg. Further, in data set [4], the “HLM” value was 53 µL/min/mg.
For `CC(C)Cc1cnc2c(c1)[C@@H](NC[C@@H](O)[C@H](Cc1ccc3c(c1)OCO3)NC(=O)[C@@H]1CCCO1)CC1(CCC1)O2` [compound 548], the IC50 worked out at 623 nM in data set [1], 74 nM in data set [2], 300 nM on CYP3A4 (CYP3A) and 3.7 µM against CYP2D6. Further, the “RLM” value in data set [3] worked out at 184 µL/min/mg. The “HLM” value in data set [4] worked out at 57 µL/min/mg.
`COCC(=O)N[C@@H](Cc1ccc(F)cc1)[C@H](O)CN[C@H]1CC2(CCC2)Oc2c1cc(CC(C)(C)C)nc2-c1ccncc1` [compound 549]: the IC50 came to 296 nM in data set [1], 71 nM in data set [2], 100 nM at CYP3A4 (CYP3A) and 2 µM against CYP2D6. Further, the “RLM” value in data set [3] is 122 µL/min/mg. In addition, in data set [4], the “HLM” value is 38 µL/min/mg.
Regarding `COCC(=O)N[C@@H](Cc1cccc(F)c1)[C@H](O)CN[C@H]1CC2(CCC2)Oc2c(-c3ccncc3)cc(Cl)cc21` [compound 550], the IC50 in data set [1] worked out at 474 nM; in data set [2] it was 42 nM; against CYP3A4 (CYP3A), 200 nM; against CYP2D6, 0.5 µM. Besides, the “RLM” value in data set [3] was 315 µL/min/mg. In addition, the “HLM” value in data set [4] is 338 µL/min/mg.
